Assay results taken from EPA's ToxValDB 9.5 (doi:10.2903/j.efsa.2011.2419).

What was measured:
Anas platyrhynchos = details: short-term; oral; feed; mortality
Colinus virginianus = details: acute, oral, mortality; for LC50: diet
Rattus norvegicus = details: inhalation
[1] = reproduction developmental, mortality

Structure (SMILES)	LC50 (Anas platyrhynchos) [mg/kg]	LC50 (Colinus virginianus) [mg/kg]	LD50 (Colinus virginianus) [mg/kg-day]	NOAEL (Rattus norvegicus; chronic, duration: 2 years) [mg/kg-day]	NOAEL (Rattus norvegicus; [1]) [mg/kg-day]	NOAEL (Rattus norvegicus; subchronic, duration: 90 days) [mg/kg-day]
P [Phosphine]	762	124	< 9.2	1.1	1.9	1.1
[Ca+2].[Ca+2].[Ca+2].[P-3].[P-3] [Tricalcium diphosphide]	2040	330	< 24.7	1.1	1.9	1.1
